Where two headings read alike, the source gives them in different places.
How the values were obtained:
Hela cells [1] = conditions: MTT, 48 h; ref Wang et al. (2016a); cited from earlier work
MCF-7 cells [2] = conditions: MTT, 72 h; ref Wang et al. (2016a); cited from earlier work
U2OS cells [3] = conditions: MTT, 48 h; ref Wang et al. (2016a); cited from earlier work
Hela cells [4] = conditions: 24 h, ref Wang et al. (2016a), cited from earlier work
[5] = test system: mitotic spindles in Hela cells; conditions: Hela metaphase cells, 24 h, IC50; ref Wang et al. (2016a); cited from earlier work
[6] = test system: actin filaments in Hela cells; conditions: cited from earlier work
[7] = test system: cellular actin filaments in actin-RFP Hela cells; conditions: ref Wang et al. (2016a); cited from earlier work
Hela cells [8] = test: MTT assay (cytotoxicity), Hela; format: cell-based, human; conditions: 48 h; for IC80: 80% reduction of cell viability
Experimental: (§1) The anti-proliferative effects of cucurbitacins were assessed using MTT assay, as previously described ([Nurcahyanti & Wink, 2015]). In brief, cells (1 × 10^4) were seeded in 96-well plates and incubated with different concentrations of cucurbitacins for 48 h (Hela, U2OS) and 72 h (MCF-7). MTT solution was then added and incubated for 2 h. The plates were read at 570 nm after the addition of DMSO using Tecan infinite M200 Pro (Tecan, Crailsheim, Germany).
(§2) All experiments were done in triplicate, repeated three times. Data are presented as mean ± standard deviation (SD). Statistical comparison between controls and different treatments were performed by an unpaired student’s t test using Microsoft excel 2013 (Microsoft Corporation, Washington, USA). Significance was considered at p < 0.05.

MCF-7 cells [9] = test: MTT assay (cytotoxicity), MCF-7; format: cell-based, human
Experimental: as §1, §2

U2OS cells [10] = test: MTT assay (cytotoxicity), U2OS; format: cell-based, human; conditions: 48 h
Experimental: as §1, §2

[11] = biological target: T1, Porcine brain tubulin plus MAPs (Sus scrofa, UniProt P02550+P02554); test: In vitro tubulin polymerization assay; format: biochemical; conditions: for effect on tubulin assembly in vitro at 1 mM: Figure 4D
T1 construct: Porcine brain tubulin plus MAPs was prepared by two cycles of polymerization and depolymerization; from tissue; host or cells: porcine brain
T1 sequence (P02550 whole entry): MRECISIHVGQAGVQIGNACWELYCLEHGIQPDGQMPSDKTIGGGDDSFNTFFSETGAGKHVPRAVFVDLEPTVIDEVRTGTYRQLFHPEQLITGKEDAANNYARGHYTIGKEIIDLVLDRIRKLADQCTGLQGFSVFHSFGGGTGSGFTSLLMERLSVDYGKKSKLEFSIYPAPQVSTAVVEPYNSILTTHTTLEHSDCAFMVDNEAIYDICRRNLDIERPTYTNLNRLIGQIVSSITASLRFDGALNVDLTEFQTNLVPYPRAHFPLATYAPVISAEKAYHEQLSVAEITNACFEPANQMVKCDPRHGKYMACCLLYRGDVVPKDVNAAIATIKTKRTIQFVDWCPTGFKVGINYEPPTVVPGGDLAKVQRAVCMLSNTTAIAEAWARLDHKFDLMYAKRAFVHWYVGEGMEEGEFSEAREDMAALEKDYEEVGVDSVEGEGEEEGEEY
T1 sequence (P02554 whole entry): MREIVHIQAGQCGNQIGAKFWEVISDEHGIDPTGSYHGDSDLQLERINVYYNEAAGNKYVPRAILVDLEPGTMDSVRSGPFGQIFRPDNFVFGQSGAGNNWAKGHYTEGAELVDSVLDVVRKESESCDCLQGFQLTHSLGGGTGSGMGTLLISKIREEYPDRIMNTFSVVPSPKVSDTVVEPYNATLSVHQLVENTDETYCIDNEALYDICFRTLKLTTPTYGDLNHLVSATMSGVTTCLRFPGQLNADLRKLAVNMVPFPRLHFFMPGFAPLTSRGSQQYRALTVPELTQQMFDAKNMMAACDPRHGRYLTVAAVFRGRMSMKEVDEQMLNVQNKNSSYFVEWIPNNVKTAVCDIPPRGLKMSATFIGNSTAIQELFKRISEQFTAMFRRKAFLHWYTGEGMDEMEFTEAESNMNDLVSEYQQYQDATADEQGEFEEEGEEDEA
Experimental: Porcine brain tubulin plus MAPs was prepared by two cycles of polymerization and depolymerization according to a standard protocol ([Gell et al., 2011]). In-vitro tubulin polymerization assays were carried out in PEM buffer (100 mM PIPES, 2 mM EGTA, 0.1 mM EDTA, 3 mM MgCl2, 1 mM ATP and 1 mM GTP, pH 6.85) by mixing 5.6 mg/ml tubulin-MAPs with different concentrations of cucurbitacins in 96-well plates at 37°C for 40 min. The rate and extent of the polymerization reaction were monitored by light scattering at 360 nm using Tecan infinite M200 Pro.
as §2

Hela cells [12] = test: Cell cycle analysis (propidium iodide, flow cytometry); format: cell-based, human; conditions: 24 h
Experimental: Cell cycle analysis was carried out as established in our laboratory ([Su, Cheng & Wink, 2015]). Briefly, Hela cells (5 × 10^5) were seeded in 6-well-plates and treated with different concentrations of cucurbitacins for 24 h. Cells were then collected, centrifuged and fixed in 70% ice-cold ethanol for at least 8 h. After washing steps, cells were treated with 0.2 mg/ml RNase A for 30 min at 37 C and then stained with 0.1 mg/ml propidium iodide. Samples were analyzed using a FACScan flow cytometer (Becton Dickinson, Heidelberg, Germany). Data were analyzed using Cell Quest™ Pro software (Becton Dickinson) and Microsoft excel (Microsoft Corporation, Washington, USA).

[13] = test system: microtubule network in α-tubulin-GFP U2OS cells; test: Imaging of tubulin-GFP transfected U2OS cells; format: cell-based, human; conditions: IC80 and IC50, 2-48 h
Experimental: Cells were imaged using a Keyence BZ-9000 microscope (Keyence; Neu-Isenburg, Germany) after incubation for 2 h, 4 h, 24 h and 48 h. The images were analyzed using BZ-II Analyzer software (version 2.1, Keyence; Neu-Isenburg, Germany).

[14] = test system: mitotic spindles in Hela cells; test: Immunofluorescence staining, mitotic spindles; format: cell-based, human; conditions: Hela metaphase cells, 24 h, IC50
Experimental: The immunofluorescence staining was carried out as established in our laboratory ([Wang et al., 2016a]).

[15] = test system: Hela, MCF-7 and U2OS cells; test: MTT assay, summary over three cell lines; format: cell-based; conditions: Homo sapiens; range over Hela, MCF-7, U2OS and over the three cucurbitacins
Experimental: as §1, §2

[16] = biological target: T1, Porcine brain tubulin plus MAPs
[17] = test system: microtubule network in α-tubulin-GFP U2OS cells; conditions: cited from earlier work
[18] = 1 h and 24 h, ref Wang et al. (2016a)

Compound	IC80 (Hela cells [1]) [µM]	IC80 (MCF-7 cells [2]) [µM]	IC80 (U2OS cells [3]) [µM]	effect on cell cycle (Hela cells [4])	effect on mitotic spindles [5]	effect on actin filaments (immunofluorescence) [6, 18]	effect on cellular actin filaments (actin-RFP) [7]	IC50 (Hela cells [8]; Homo sapiens, HeLa) [µM]	IC80 (Hela cells [8]; Homo sapiens, HeLa) [µM]	IC50 (MCF-7 cells [9]; Homo sapiens, MCF7, 72 h) [µM]	IC80 (MCF-7 cells [9]; Homo sapiens, MCF7, 72 h) [µM]	IC50 (U2OS cells [10]; Homo sapiens, U2OS) [µM]	IC80 (U2OS cells [10]; Homo sapiens, U2OS) [µM]	IC50 [11] [µM]	effect on cell cycle (Hela cells [12])	effect on cellular microtubule network [13]	effect on mitotic spindles [14]	IC50 [15] [µM]	effect on tubulin assembly in vitro [11]	effect on tubulin assembly in vitro at 1 mM [11]	also measured
COc1cc2c(c(OC)c1OC)-c1ccc(OC)c(=O)cc1[C@@H](NC(C)=O)CC2 [Colchicine, colchicine]	0.027 ± 0.00748	0.0799 ± 0.0409	0.87 ± 1.46	dose-dependent G2/M cell cycle arrest	completely depolymerized spindle with the compacted chromosomes	No apparent changes on actin filaments	No notable changes on actin filaments	–	–	–	–	–	–	–	–	–	–	–	–	–	G2/M population (Hela cells [4]; 0.1μM): 89.66 ± 2.04%
CC(=O)OC(C)(C)/C=C/C(=O)[C@](C)(O)[C@H]1[C@H](O)C[C@@]2(C)[C@@H]3CC=C4[C@@H](C=C(O)C(=O)C4(C)C)[C@]3(C)C(=O)C[C@]12C [Cucurbitacin E, cucurbitacin E]	–	–	–	–	–	–	–	0.00643 ± 0.00105	0.0151 ± 0.00267	0.054 ± 0.00316	0.92 ± 0.2	0.0151 ± 0.00451	0.0263 ± 0.0185	567 ± 113	potential ability to arrest cell cycle at G2/M phase	changed the morphology of microtubule network into half-stretching state after 2 h incubation then round state after 24 h incubation	disordered distribution of spindle array	0.00643 to 0.0647	–	–	effect on phases of microtubule assembly (nucleation, growth, steady state) [11]: did not affect the nucleation but inhibited the growth phase and steady state; G2/M population (Hela cells [12]; 0.3μM): 59.35 ± 5.69%
CC(C)(O)/C=C/C(=O)[C@](C)(O)[C@H]1[C@H](O)C[C@@]2(C)[C@@H]3CC=C4[C@@H](C=C(O)C(=O)C4(C)C)[C@]3(C)C(=O)C[C@]12C [Cucurbitacin I, cucurbitacin I]	–	–	–	–	–	–	–	0.0448 ± 0.00154	0.0555 ± 0.00363	0.0647 ± 0.0143	0.29 ± 0.08	0.0235 ± 0.0169	0.034 ± 0.0177	> 1000	potential ability to arrest cell cycle at G2/M phase	–	multipolar spindles and chromosomes mis-segregation on the metaphase plate	0.00643 to 0.0647	did not affect the tubulin assembly in vitro	did not affect the assembly	G2/M population (Hela cells [12]; 0.6μM): 59.18 ± 7.2%
C/C1=C/C(=O)O[C@@H]2C[C@@H](CC[C@H](C)/C=C\CC1)O[C@@](O)([C@@H]1CSC(=O)N1)C2 [Latrunculin B, latrunculin B]	63.9 ± 5.68	140 ± 6.58	37.2 ± 15.7	dose-dependent G2/M cell cycle arrest	did not alter mitotic spindles and chromosome arrangements	actin cytoskeleton extensively disrupted	actin cytoskeleton significantly disrupted	–	–	–	–	–	–	–	–	–	–	–	–	–	IC50 (Hela cells [1]): 11.2 ± 1.27 µM; IC50 (MCF-7 cells [2]): 38.5 ± 1.7 µM; IC50 (U2OS cells [3]): 5.67 ± 0.59 µM; IC50 ([16]; read-out: IC50, inhibition of tubulin polymerization in vitro; 5.6 mg/ml tubulin-MAPs, 37°C, 40 min; ref Wang et al. (2016a); cited from earlier work): > 1000 µM; effect on cellular microtubule network ([17]; both concentrations (IC80, IC50), ref Wang et al. (2016a)): changed the cell morphology from stretching state into round state
CC[C@]1(O)C[C@@H]2CN(CCc3c([nH]c4ccccc34)[C@@](C(=O)OC)(c3cc4c(cc3OC)N(C)[C@H]3[C@@](O)(C(=O)OC)[C@H](OC(C)=O)[C@]5(CC)C=CCN6CC[C@]43[C@@H]65)C2)C1 [Vinblastine, vinblastine]	0.7 ± 0.34	2.08 ± 0.92	1.15 ± 0.51	dose-dependent G2/M cell cycle arrest	depolymerized bipolar spindles	–	No notable changes on actin filaments	–	–	–	–	–	–	–	–	–	–	–	–	–	IC50 (Hela cells [1]): 2e-05 ± 1e-05 µM; IC50 (MCF-7 cells [2]): 6e-05 ± 5e-05 µM; IC50 (U2OS cells [3]): 0.00011 ± 7e-05 µM; IC50 ([16]; 5.6 mg/ml tubulin-MAPs, 37°C, 40 min; ref Wang et al. (2016a); read-out: IC50, inhibition of tubulin polymerization in vitro; cited from earlier work): 1.57 ± 0.34 µM; effect on phases of microtubule assembly (nucleation, growth, steady state) ([16]; ref Wang et al. (2016a); cited from earlier work): inhibited the nucleation and growth phase during the assembly; G2/M population (Hela cells [4]; 10 nM): 78.04 ± 14.78%; effect on cellular microtubule network ([17]; concentration of IC50, ref Wang et al. (2016a)): extensively depolymerized microtubules; effect on cellular microtubule network ([17]; concentration of IC80, ref Wang et al. (2016a)): tubulin paracrystals were formed and dispersed through out the cytoplasm; effect on actin filaments (immunofluorescence) ([6]; 24 h, concentration of IC80, ref Wang et al. (2016a)): slight reduction of actin filament mass
cucurbitacin B	–	–	–	–	–	–	–	–	–	–	–	–	–	–	potential ability to arrest cell cycle at G2/M phase	changed the morphology of microtubule network into half-stretching state after 2 h incubation then round state after 24 h incubation	disordered distribution of spindle array	–	did not affect the tubulin assembly in vitro	did not affect the assembly	IC50 (Hela cells [8]): 0.0122 ± 0.00142 µM; IC80 (Hela cells [8]): 0.022 ± 0.00139 µM; IC50 (MCF-7 cells [9]; 72 h): 0.0229 ± 0.00451 µM; IC80 (MCF-7 cells [9]; 72 h): 0.0437 ± 0.0106 µM; IC50 (U2OS cells [10]): 0.0171 ± 0.00455 µM; IC80 (U2OS cells [10]): 0.0281 ± 0.0152 µM; effect on tubulin polymerization in vitro ([16]; same assay; ref Duangmano et al. (2012); cited from earlier work): did not affect tubulin polymerization in vitro
